From ChEMBL document CHEMBL5649166, “RIP3 induces apoptosis independent of pronecrotic kinase activity” (Mol Cell, 2014)
Calls of active or inactive are those of the source. The rule behind the calls is not given here.

Legend:
NIH3T3 = assay: Induction of apoptosis in mouse NIH/3T3 cells expressing low level of […] at 1 to 10 uM incubated for 18 hrs by Cell Titer-Glo luminescent cell viability assay; type: toxicity, cell-based; settings: nih3t3, 18 h, dose 1-10 µM
SVEC4-10 [1] = assay: Inhibition of DAI-induced necroptosis in wildtype MCMV infected mouse SVEC4-10 cells assessed as increase in cell viability at 10 uM incubated for 18 hrs in presence of zVAD by Cell Titer-Glo luminescent cell viability assay; type: functional, cell-based
3T3SA [2] = assay: Induction of apoptosis in vICA expression plasmid transfected mouse 3T3SA cells co-transfected with shRNA-resistant RIP3 K51A mutant incubated for 12 hrs by Cell Titer-Glo luminescent cell viability assay; type: toxicity, cell-based
3T3SA [3] = assay: Induction of apoptosis in mouse 3T3SA cells incubated for 18 hrs in presence of zLEHD by Cell Titer-Glo luminescent cell viability assay; type: toxicity, cell-based
3T3SA [4] = assay: Induction of apoptosis in mouse 3T3SA cells assessed as accumulation of cleaved caspase-3 by measuring percentage of cleaved caspase-3 positive cells measured after 2.5 hrs in presence of zVAD by immunoblot analysis (reference value: 4%); type: toxicity, cell-based
SVEC4-10 [5] = assay: Induction of apoptosis in mouse SVEC4-10 cells transfected with M45mutRHIM incubated for 18 hrs by Cell Titer-Glo luminescent cell viability assay; type: toxicity, cell-based; settings: svec4-10, 18 h
3T3SA [6] = assay: Induction of apoptosis in mouse 3T3SA cells assessed as accumulation of cleaved caspase-3 measured after 1.5 to 2.5 hrs by immunoblot analysis; type: toxicity, cell-based; settings: time 1.5-2.5 hrs
3T3SA [7] = assay: Induction of apoptosis in mouse 3T3SA cells incubated for 18 hrs in presence of zYVAD by Cell Titer-Glo luminescent cell viability assay; type: toxicity, cell-based
MEF [8] = assay: Induction of apoptosis in […] MEF cells incubated for 18 hrs by Cell Titer-Glo luminescent cell viability assay; type: toxicity, cell-based; settings: mouse
3T3SA [9] = assay: Induction of apoptosis in mouse 3T3SA cells transfected with RIP3 shRNA assessed as increase in caspase3/7 proteolytic activity incubated for 4 hrs; type: toxicity, cell-based
L929 = assay: Inhibition of TLR-3 induced necroptosis in mouse L929 cells assessed as increase in cell viability upto 10 uM incubated for 18 hrs in presence of poly(I:C) and zVAD by Cell Titer-Glo luminescent cell viability assay; type: functional, cell-based
[10] = molecular target: Nuclear factor NF-kappa-B complex (Homo sapiens) (UniProt Q00653+P19838+Q04206); assay: Activation of NFkappaB (unknown origin) transfected in mouse 3T3SA cells incubated for 2.5 hrs; type: cell-based; settings: filed as activator
MEF [11] = assay: Induction of apoptosis in RIP3-/- MEF cells expressing dox-induced RIP3 K51A mutant assessed as RIP1-RIP3 association incubated for 1 hrs by immunoblot analysis; type: toxicity, cell-based; settings: mouse
SVEC4-10 [12] = assay: Inhibition of DAI-induced necroptosis in MCMV M45mutRHIM infected mouse SVEC4-10 cells assessed as increase in cell viability at 10 uM incubated for 18 hrs in presence of zVAD by Cell Titer-Glo luminescent cell viability assay; type: functional, cell-based
3T3SA [13] = assay: Induction of apoptosis in RIP3shRNA transfected mouse 3T3SA cells co-transfected with shRNA-resistant RIP3 D161N mutant pre-tranfected for 16 hrs followed by compound addition and measured after 18 hrs in presence of zVAD by Cell Titer-Glo luminescent cell viability assay; type: toxicity, cell-based
3T3SA [14] = assay: Induction of apoptosis in mouse 3T3SA cells assessed as cell morphological changes incubated for 2.5 hrs by transmission electron microscopic analysis; type: toxicity, cell-based
3T3SA [15] = assay: Induction of apoptosis in RIP3shRNA transfected mouse 3T3SA cells co-transfected with shRNA-resistant RIP3 T257A mutant pre-tranfected for 16 hrs followed by compound addition and measured after 18 hrs in presence of zVAD by Cell Titer-Glo luminescent cell viability assay; type: toxicity, cell-based
MEF [16] = assay: Induction of apoptosis in cFLIPL-/- MEF cells transfected with cFLIPL expressing retrovirus assessed as increase in caspase 8 proteolytic activity incubated for 4 hrs; type: toxicity, cell-based; settings: mouse
BMDM = assay: Induction of apoptosis in mouse BMDM cells expressing RIP3 K51A/K51A mutant incubated for 18 hrs by Cell Titer-Glo luminescent cell viability assay; type: toxicity, cell-based
MEF [17] = assay: Induction of apoptosis in MEF cells expressing wildtype RIP3 incubated for 18 hrs by Cell Titer-Glo luminescent cell viability assay; type: toxicity, cell-based; settings: mouse
MEF [18] = assay: Induction of apoptosis in RIP3-/- MEF cells expressing dox-induced RIP3 K51A mutant assessed as RIP1-FADD association incubated for 1 hrs by immunoblot analysis; type: toxicity, cell-based; settings: mouse
MEF [19] = assay: Induction of apoptosis in cFLIPL-/- MEF cells incubated for 18 hrs by Cell Titer-Glo luminescent cell viability assay; type: toxicity, cell-based; settings: mouse
MEF [20] = assay: Induction of apoptosis in cFLIPL-/- MEF cells transfected with cFLIPL expressing retrovirus incubated for 18 hrs by Cell Titer-Glo luminescent cell viability assay; type: toxicity, cell-based; settings: mouse
3T3SA [21] = assay: Inhibition of TNF-alpha induced necroptosis in mouse 3T3SA cells at 10 uM incubated for 18 hrs in presence of zVAD by SYTOX green uptake assay; type: functional, cell-based
3T3SA [22] = assay: Induction of apoptosis in mouse 3T3SA cells incubated for 18 hrs in presence of zIETD by Cell Titer-Glo luminescent cell viability assay; type: toxicity, cell-based
MEF [23] = assay: Induction of apoptosis in RIP3-/- MEF cells expressing dox-induced wildtype RIP3 assessed as RIP1-RPI3 association incubated for 1 hrs by immunoblot analysis; type: toxicity, cell-based; settings: mouse
[24] = molecular target: Serine/threonine-protein kinase mTOR (Homo sapiens) (UniProt P42345); assay: Inhibition of human mTOR/FRAP1 using at 1 uM in presence of 32P-ATP by Hotspot assay relative to control
[25] = molecular target: Serine/threonine-protein kinase ULK2 (Homo sapiens) (UniProt Q8IYT8); assay: Inhibition of human ULK2 using myelin basic protein as substrate at 1 uM in presence of 32P-ATP by Hotspot assay relative to control; values are per cent of control
[26] = molecular target: Serine/threonine-protein kinase ULK1 (Homo sapiens) (UniProt O75385); assay: Inhibition of human ULK1 using myelin basic protein as substrate at 1 uM in presence of 32P-ATP by Hotspot assay relative to control; values are per cent of control
[27] = molecular target: MAP kinase-interacting serine/threonine-protein kinase 1 (Homo sapiens) (UniProt Q9BUB5); assay: Inhibition of human MNK1 using myelin basic protein as substrate at 1 uM in presence of 32P-ATP by Hotspot assay relative to control; values are per cent of control
[28] = molecular target: Serine/threonine-protein kinase tousled-like 2 (Homo sapiens) (UniProt Q86UE8); assay: Inhibition of human TLK2 using casein as substrate at 1 uM in presence of 32P-ATP by Hotspot assay relative to control; values are per cent of control
[29] = molecular target: Myosin-IIIb (Homo sapiens) (UniProt Q8WXR4); assay: Inhibition of human MYO3b using myelin basic protein as substrate at 1 uM in presence of 32P-ATP by Hotspot assay relative to control; values are per cent of control
Myosin-IIIb (Homo sapiens), sequence (Q8WXR4 whole entry): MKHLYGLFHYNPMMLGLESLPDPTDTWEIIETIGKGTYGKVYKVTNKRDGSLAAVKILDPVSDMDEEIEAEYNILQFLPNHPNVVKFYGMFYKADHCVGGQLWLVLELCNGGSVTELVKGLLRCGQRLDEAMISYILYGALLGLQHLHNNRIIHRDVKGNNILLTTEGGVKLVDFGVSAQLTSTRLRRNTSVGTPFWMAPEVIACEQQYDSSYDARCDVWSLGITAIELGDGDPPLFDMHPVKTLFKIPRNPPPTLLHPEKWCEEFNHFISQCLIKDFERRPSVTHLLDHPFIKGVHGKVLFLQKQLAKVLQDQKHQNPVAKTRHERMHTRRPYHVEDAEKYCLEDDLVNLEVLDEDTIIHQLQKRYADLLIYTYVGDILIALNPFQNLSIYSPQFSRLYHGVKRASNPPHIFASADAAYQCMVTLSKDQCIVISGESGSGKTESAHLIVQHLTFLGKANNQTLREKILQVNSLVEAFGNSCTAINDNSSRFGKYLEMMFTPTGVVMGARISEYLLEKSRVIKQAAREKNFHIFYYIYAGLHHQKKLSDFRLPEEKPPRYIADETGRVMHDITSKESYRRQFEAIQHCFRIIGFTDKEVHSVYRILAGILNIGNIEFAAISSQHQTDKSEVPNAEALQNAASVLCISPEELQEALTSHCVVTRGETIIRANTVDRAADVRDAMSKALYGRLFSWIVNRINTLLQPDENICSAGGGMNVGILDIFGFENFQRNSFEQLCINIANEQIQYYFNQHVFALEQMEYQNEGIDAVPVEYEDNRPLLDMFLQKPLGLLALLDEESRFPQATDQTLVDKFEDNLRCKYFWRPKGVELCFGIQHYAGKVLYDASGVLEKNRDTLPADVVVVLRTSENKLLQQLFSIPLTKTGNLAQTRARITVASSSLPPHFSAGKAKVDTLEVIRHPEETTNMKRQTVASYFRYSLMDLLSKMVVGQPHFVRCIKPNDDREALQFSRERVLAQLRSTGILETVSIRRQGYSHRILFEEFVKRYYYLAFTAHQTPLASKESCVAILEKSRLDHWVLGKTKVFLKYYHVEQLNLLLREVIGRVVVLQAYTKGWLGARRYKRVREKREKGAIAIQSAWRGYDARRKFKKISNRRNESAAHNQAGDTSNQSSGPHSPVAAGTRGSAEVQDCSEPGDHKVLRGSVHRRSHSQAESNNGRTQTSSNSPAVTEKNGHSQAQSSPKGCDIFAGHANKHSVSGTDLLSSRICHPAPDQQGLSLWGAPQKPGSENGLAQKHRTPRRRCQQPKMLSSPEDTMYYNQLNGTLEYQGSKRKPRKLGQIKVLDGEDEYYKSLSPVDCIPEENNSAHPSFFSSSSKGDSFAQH

Serine/threonine-protein kinase ULK2 (Homo sapiens), sequence (Q8IYT8 whole entry): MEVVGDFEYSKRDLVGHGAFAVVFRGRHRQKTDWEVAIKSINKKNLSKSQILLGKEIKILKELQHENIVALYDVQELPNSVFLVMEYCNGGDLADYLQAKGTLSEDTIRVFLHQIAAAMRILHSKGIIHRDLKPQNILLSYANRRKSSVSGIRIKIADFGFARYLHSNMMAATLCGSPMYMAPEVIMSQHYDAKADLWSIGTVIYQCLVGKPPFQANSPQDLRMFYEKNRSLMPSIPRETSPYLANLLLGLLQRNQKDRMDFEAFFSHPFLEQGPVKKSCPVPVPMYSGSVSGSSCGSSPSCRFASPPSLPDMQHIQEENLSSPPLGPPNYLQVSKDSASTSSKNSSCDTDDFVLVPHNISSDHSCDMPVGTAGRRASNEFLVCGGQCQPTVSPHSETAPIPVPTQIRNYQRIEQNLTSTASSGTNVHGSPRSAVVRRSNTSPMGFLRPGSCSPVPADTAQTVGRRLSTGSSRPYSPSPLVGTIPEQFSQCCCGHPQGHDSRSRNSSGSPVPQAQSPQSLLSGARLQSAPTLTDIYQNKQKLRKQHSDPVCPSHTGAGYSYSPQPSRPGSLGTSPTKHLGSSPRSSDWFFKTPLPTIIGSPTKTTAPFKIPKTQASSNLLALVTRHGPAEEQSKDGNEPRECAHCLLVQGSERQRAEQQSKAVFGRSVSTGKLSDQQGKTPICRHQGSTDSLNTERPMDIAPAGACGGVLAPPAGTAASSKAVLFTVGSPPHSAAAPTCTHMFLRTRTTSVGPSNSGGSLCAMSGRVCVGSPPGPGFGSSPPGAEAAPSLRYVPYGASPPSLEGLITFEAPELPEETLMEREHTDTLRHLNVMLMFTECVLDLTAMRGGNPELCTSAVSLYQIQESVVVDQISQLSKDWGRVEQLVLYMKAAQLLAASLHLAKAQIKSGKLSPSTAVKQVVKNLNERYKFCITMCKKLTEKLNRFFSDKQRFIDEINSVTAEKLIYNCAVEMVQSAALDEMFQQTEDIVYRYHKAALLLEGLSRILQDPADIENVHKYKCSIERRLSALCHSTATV
Serine/threonine-protein kinase ULK1 (Homo sapiens), sequence (O75385 whole entry): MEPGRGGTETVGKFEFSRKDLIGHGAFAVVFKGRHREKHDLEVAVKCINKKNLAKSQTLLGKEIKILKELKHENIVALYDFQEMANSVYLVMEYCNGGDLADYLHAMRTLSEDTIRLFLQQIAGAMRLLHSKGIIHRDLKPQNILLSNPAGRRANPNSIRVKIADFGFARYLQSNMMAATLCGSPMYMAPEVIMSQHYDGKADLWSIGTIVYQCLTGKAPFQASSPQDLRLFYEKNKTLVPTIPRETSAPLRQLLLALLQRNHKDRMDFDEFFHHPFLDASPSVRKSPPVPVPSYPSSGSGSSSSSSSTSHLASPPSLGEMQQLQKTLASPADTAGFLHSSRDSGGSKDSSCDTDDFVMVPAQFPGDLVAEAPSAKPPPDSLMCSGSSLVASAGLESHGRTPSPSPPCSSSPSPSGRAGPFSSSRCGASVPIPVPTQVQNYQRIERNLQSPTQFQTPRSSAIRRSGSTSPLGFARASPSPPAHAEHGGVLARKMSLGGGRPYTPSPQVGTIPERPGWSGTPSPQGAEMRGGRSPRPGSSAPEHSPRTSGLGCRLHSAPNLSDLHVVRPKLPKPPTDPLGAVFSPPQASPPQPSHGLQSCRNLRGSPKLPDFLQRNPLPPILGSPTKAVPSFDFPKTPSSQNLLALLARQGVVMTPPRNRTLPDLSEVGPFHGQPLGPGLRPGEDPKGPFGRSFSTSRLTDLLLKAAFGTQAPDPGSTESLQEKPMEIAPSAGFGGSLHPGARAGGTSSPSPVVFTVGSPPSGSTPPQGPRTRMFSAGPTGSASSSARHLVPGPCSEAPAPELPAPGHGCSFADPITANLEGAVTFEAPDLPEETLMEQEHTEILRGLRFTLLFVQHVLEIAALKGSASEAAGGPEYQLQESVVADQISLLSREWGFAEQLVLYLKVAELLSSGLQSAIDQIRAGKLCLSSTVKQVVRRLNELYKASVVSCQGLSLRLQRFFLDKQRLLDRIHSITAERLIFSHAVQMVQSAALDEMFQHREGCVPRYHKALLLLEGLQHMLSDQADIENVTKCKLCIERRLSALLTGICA
Serine/threonine-protein kinase tousled-like 2 (Homo sapiens), sequence (Q86UE8 whole entry, looked up): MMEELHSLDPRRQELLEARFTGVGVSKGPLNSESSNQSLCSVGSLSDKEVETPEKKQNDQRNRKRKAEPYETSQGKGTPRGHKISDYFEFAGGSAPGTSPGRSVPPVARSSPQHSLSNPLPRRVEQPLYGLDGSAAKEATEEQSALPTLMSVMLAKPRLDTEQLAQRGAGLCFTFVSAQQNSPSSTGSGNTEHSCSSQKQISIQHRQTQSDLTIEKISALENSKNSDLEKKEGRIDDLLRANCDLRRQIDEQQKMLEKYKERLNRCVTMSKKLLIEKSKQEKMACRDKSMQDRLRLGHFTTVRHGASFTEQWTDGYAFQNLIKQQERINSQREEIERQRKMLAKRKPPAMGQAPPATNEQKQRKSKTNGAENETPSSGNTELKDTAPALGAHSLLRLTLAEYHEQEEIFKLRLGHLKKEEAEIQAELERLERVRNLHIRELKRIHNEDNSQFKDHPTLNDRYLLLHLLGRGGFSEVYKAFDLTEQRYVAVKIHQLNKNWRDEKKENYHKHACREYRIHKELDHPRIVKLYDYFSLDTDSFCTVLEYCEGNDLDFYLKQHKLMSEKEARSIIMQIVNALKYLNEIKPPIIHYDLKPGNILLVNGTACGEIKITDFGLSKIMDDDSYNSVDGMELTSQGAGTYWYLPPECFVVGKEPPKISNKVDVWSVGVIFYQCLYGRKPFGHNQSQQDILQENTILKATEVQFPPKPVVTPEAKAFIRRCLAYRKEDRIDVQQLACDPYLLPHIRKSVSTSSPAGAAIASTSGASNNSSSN
MAP kinase-interacting serine/threonine-protein kinase 1 (Homo sapiens), sequence (Q9BUB5 whole entry, looked up): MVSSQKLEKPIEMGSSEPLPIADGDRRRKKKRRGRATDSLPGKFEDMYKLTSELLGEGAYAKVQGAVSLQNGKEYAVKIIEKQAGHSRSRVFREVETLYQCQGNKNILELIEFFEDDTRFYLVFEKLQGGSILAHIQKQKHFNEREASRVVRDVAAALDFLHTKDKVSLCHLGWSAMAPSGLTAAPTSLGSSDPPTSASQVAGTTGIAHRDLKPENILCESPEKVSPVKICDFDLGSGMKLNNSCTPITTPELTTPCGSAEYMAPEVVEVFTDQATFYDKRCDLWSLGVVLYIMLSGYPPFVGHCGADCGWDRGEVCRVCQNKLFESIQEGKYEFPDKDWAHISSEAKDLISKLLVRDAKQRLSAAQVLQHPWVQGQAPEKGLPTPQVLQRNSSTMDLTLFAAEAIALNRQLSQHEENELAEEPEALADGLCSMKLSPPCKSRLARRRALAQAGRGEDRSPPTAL

**Q.** What does the source list for CC(C)S(=O)(=O)c1ccc2nccc(Nc3ccc4scnc4c3)c2c1?
**A.** Activity (NIH3T3): Non-Toxic; inhibition (SVEC4-10 [1]): Active; Activity (3T3SA [2]): Non-Toxic; Activity (3T3SA [3]): Toxic; Activity (3T3SA [4]): 3%; Activity (SVEC4-10 [5]): Toxic; Activity (3T3SA [6]): Toxic; Activity (3T3SA [7]): Toxic; Activity (MEF [8]): Non-Toxic; Activity (3T3SA [9]): Non-Toxic; inhibition (L929): Active; Activity [10]: Active; Activity (MEF [11]): Toxic; inhibition (SVEC4-10 [12]): Active; Activity (3T3SA [13]): Non-Toxic; Activity (3T3SA [14]): Toxic; Activity (3T3SA [15]): Non-Toxic; Activity (MEF [16]): Toxic; Activity (BMDM): Toxic; Activity (MEF [17]): Toxic; Activity (MEF [18]): Toxic; Activity (MEF [19]): Non-Toxic; Activity (MEF [20]): Toxic; Activity (3T3SA [21]): Active; Activity (3T3SA [22]): Non-Toxic; Activity (MEF [23]): Toxic

**Q.** Which inhibition [24] does the source give for Cc1cc(-c2cnc(N)c3c(-c4ccc5scnc5c4)csc23)n(C)n1 here?
**A.** Its inhibition is 60.8%.

**Q.** CNC(=O)c1ccc2c(c1)ncn2-c1ccc(CC(=O)OC(C)(C)C)cc1 was tested. Which residual activity [25] did it give?
**A.** Its residual activity is 96.1%.

**Q.** What about the residual activity [26] of the same compound?
**A.** Its residual activity is 104%.

**Q.** What about the residual activity [27] of the same compound?
**A.** The residual activity was 99.7%.

**Q.** What about the residual activity [28] of the same compound?
**A.** The residual activity was 94.4%.

**Q.** And the residual activity [29]?
**A.** Its residual activity is 92.4%.
